Legend:
Lichtheimia corymbifera [1] = assay: Antifungal activity against Absidia corymbifera 272 after 48 hrs by broth microdilution method; format: functional; conditions: Lichtheimia corymbifera, 272, 48 h
Staphylococcus aureus [2] = assay: Antibacterial activity against Staphylococcus aureus ATCC 6538 after 24 hrs by broth microdilution method; format: functional; conditions: ATCC 6538, 24 h
Pichia kudriavzevii [3] = assay: Antifungal activity against Candida krusei E28 after 48 hrs by broth microdilution method; format: functional; conditions: E28, 48 h
[4] = system: Mycobacterium tuberculosis; assay: Antimycobacterial activity against Mycobacterium tuberculosis H37Rv CNCTC My 331/88 after 14 days by micromethod; format: functional; conditions: H37Rv CNCTC My 331/88, 336 h
[5] = system: Trichophyton mentagrophytes; assay: Antifungal activity against Trichophyton mentagrophytes 445 after 72 hrs by broth microdilution method; format: functional; conditions: Trichophyton mentagrophytes, 445, 72 h
[6] = Selectivity index, ratio of IC50 for mouse 3T3 cells to MIC for Mycobacterium tuberculosis H37Rv CNCTC My 331/88; format: toxicity; conditions: read-out: Selectivity Index
Staphylococcus aureus [7] = assay: Antibacterial activity against Staphylococcus aureus ATCC 6538 after 48 hrs by broth microdilution method; format: functional; conditions: ATCC 6538, 48 h
Mycobacterium kansasii [8] = assay: Antimycobacterial activity against Mycobacterium kansasii CNCTC My 235/80 after 14 days by micromethod; format: functional; conditions: CNCTC My 235/80, 336 h
Mycobacterium avium [9] = assay: Antimycobacterial activity against Mycobacterium avium CNCTC My 330/80 after 21 days by micromethod; format: functional; conditions: CNCTC My 330/80, 504 h
Enterococcus sp. [10] = assay: Antibacterial activity against Enterococcus sp. HK14365/08 after 24 hrs by broth microdilution method; format: functional; conditions: HK14365/08, 24 h
[11] = system: Trichophyton mentagrophytes; assay: Antifungal activity against Trichophyton mentagrophytes 445 after 120 hrs by broth microdilution method; format: functional; conditions: Trichophyton mentagrophytes, 445, 120 h
Klebsiella pneumoniae [12] = assay: Antibacterial activity against extended spectrum beta-lactamase producing Klebsiella pneumoniae HK14368/08 after 24 hrs by broth microdilution method; format: functional; conditions: HK14368/08, 24 h
Mycobacterium kansasii [13] = assay: Antimycobacterial activity against Mycobacterium kansasii CNCTC My 235/80 after 21 days by micromethod; format: functional; conditions: CNCTC My 235/80, 504 h
Mycobacterium kansasii [14] = assay: Antimycobacterial activity against Mycobacterium kansasii isolate 6509/96 after 7 days by micromethod; format: functional; conditions: isolate 6509/96, 168 h
Nakaseomyces glabratus [15] = assay: Antifungal activity against Candida glabrata 20/I after 24 hrs by broth microdilution method; format: functional
Mycobacterium kansasii [16] = assay: Antimycobacterial activity against Mycobacterium kansasii CNCTC My 235/80 after 7 days by micromethod; format: functional; conditions: CNCTC My 235/80, 168 h
Klebsiella pneumoniae [17] = assay: Antibacterial activity against Klebsiella pneumoniae HK11750/08 after 24 hrs by broth microdilution method; format: functional; conditions: HK11750/08, 24 h
[18] = system: Mycobacterium tuberculosis; assay: Antimycobacterial activity against Mycobacterium tuberculosis H37Rv CNCTC My 331/88 after 21 days by micromethod; format: functional; conditions: H37Rv CNCTC My 331/88, 504 h
Pseudomonas aeruginosa [19] = assay: Antibacterial activity against Pseudomonas aeruginosa ATCC 9027 after 24 hrs by broth microdilution method; format: functional; conditions: ATCC 9027, 24 h
Escherichia coli [20] = assay: Antibacterial activity against Escherichia coli ATCC 8739 after 48 hrs by broth microdilution method; format: functional; conditions: ATCC 8739, 48 h
Trichosporon asahii [21] = assay: Antifungal activity against Trichosporon asahii 1188 after 24 hrs by broth microdilution method; format: functional; conditions: Trichosporon asahii, 1188, 24 h
Pseudomonas aeruginosa [22] = assay: Antibacterial activity against Pseudomonas aeruginosa ATCC 9027 after 48 hrs by broth microdilution method; format: functional; conditions: ATCC 9027, 48 h
Staphylococcus aureus [23] = assay: Antibacterial activity against methicillin-resistant Staphylococcus aureus HK5996/08 after 48 hrs by broth microdilution method; format: functional; conditions: HK5996/08, 48 h
[24] = Selectivity index, ratio of IC50 for human HaCaT cells to MIC for Mycobacterium tuberculosis H37Rv CNCTC My 331/88; format: toxicity; conditions: read-out: Selectivity Index
Enterococcus sp. [25] = assay: Antibacterial activity against Enterococcus sp. HK14365/08 after 48 hrs by broth microdilution method; format: functional; conditions: HK14365/08, 48 h
Aspergillus fumigatus [26] = assay: Antifungal activity against Aspergillus fumigatus 231 after 48 hrs by broth microdilution method; format: functional; conditions: Aspergillus fumigatus, 231, 48 h
Mycobacterium kansasii [27] = assay: Antimycobacterial activity against Mycobacterium kansasii isolate 6509/96 after 21 days by micromethod; format: functional; conditions: isolate 6509/96, 504 h
Lichtheimia corymbifera [28] = assay: Antifungal activity against Absidia corymbifera 272 after 24 hrs by broth microdilution method; format: functional; conditions: Lichtheimia corymbifera, 272, 24 h
Aspergillus fumigatus [29] = assay: Antifungal activity against Aspergillus fumigatus 231 after 24 hrs by broth microdilution method; format: functional; conditions: Aspergillus fumigatus, 231, 24 h
Candida albicans [30] = assay: Antifungal activity against Candida albicans ATCC 44859 after 48 hrs by broth microdilution method; format: functional; conditions: ATCC 44859, 48 h
Mycobacterium avium [31] = assay: Antimycobacterial activity against Mycobacterium avium CNCTC My 330/80 after 14 days by micromethod; format: functional; conditions: CNCTC My 330/80, 336 h
Klebsiella pneumoniae [32] = assay: Antibacterial activity against Klebsiella pneumoniae HK11750/08 after 48 hrs by broth microdilution method; format: functional; conditions: HK11750/08, 48 h
Candida albicans [33] = assay: Antifungal activity against Candida albicans ATCC 44859 after 24 hrs by broth microdilution method; format: functional; conditions: ATCC 44859, 24 h
Pichia kudriavzevii [34] = assay: Antifungal activity against Candida krusei E28 after 24 hrs by broth microdilution method; format: functional; conditions: E28, 24 h
CHO-K1 = assay: Cytotoxicity against CHOK1 cells after 24 hrs by MTT assay; format: cell-based; conditions: Cricetulus griseus, CHO-K1, 24 h
Candida tropicalis [35] = assay: Antifungal activity against Candida tropicalis 156 after 48 hrs by broth microdilution method; format: functional; conditions: Candida tropicalis, 156, 48 h
HaCaT = assay: Cytotoxicity against human HaCaT cells after 72 hrs by neutral red uptake assay; format: cell-based
Klebsiella pneumoniae [36] = assay: Antibacterial activity against extended spectrum beta-lactamase producing Klebsiella pneumoniae HK14368/08 after 48 hrs by broth microdilution method; format: functional; conditions: HK14368/08, 48 h
Trichosporon asahii [37] = assay: Antifungal activity against Trichosporon asahii 1188 after 48 hrs by broth microdilution method; format: functional; conditions: Trichosporon asahii, 1188, 48 h
[38] = Selectivity index, ratio of IC50 for CHOK1 cells to MIC for Mycobacterium tuberculosis H37Rv CNCTC My 331/88; format: toxicity; conditions: hamster, CHO-K1 cells; read-out: Selectivity Index
Staphylococcus aureus [39] = assay: Antibacterial activity against methicillin-resistant Staphylococcus aureus HK5996/08 after 24 hrs by broth microdilution method; format: functional; conditions: HK5996/08, 24 h
Candida tropicalis [40] = assay: Antifungal activity against Candida tropicalis 156 after 24 hrs by broth microdilution method; format: functional; conditions: Candida tropicalis, 156, 24 h
Nakaseomyces glabratus [41] = assay: Antifungal activity against Candida glabrata 20/I after 48 hrs by broth microdilution method; format: functional
Escherichia coli [42] = assay: Antibacterial activity against Escherichia coli ATCC 8739 after 24 hrs by broth microdilution method; format: functional; conditions: ATCC 8739, 24 h
Mycobacterium kansasii [43] = assay: Antimycobacterial activity against Mycobacterium kansasii isolate 6509/96 after 14 days by micromethod; format: functional; conditions: isolate 6509/96, 336 h
[44] = system: Staphylococcus epidermidis; assay: Antibacterial activity against Staphylococcus epidermidis HK6966/08 after 48 hrs by broth microdilution method; format: functional; conditions: HK6966/08, 48 h
[45] = system: Staphylococcus epidermidis; assay: Antibacterial activity against Staphylococcus epidermidis HK6966/08 after 24 hrs by broth microdilution method; format: functional; conditions: HK6966/08, 24 h

COc1ccc(Cn2nnc(-c3cc([N+](=O)[O-])cc([N+](=O)[O-])c3)n2)cc1
8 µM: MIC99 (Mycobacterium avium [9])
0.125 µM: MIC99 (Mycobacterium kansasii [8]) | MIC99 (Mycobacterium kansasii [16]) | MIC99 (Mycobacterium kansasii [27])
> 250 µM: MIC (Staphylococcus aureus [2]) | MIC (Staphylococcus aureus [7])
96 µM: IC50 (CHO-K1)
> 1000: selectivity ratio [6] | selectivity ratio [24] | selectivity ratio [38]
> 500 µM: MIC (Lichtheimia corymbifera [1]) | MIC (Pichia kudriavzevii [3]) | MIC [5] | MIC (Enterococcus sp. [10]) | MIC [11] | MIC (Klebsiella pneumoniae [12]) | MIC (Nakaseomyces glabratus [15]) | MIC (Klebsiella pneumoniae [17]) | MIC (Pseudomonas aeruginosa [19]) | MIC (Escherichia coli [20]) | MIC (Trichosporon asahii [21]) | MIC (Pseudomonas aeruginosa [22]) | MIC (Enterococcus sp. [25]) | MIC (Aspergillus fumigatus [26]) | MIC (Lichtheimia corymbifera [28]) | MIC (Aspergillus fumigatus [29]) | MIC (Candida albicans [30]) | MIC (Klebsiella pneumoniae [32]) | MIC (Candida albicans [33]) | MIC (Pichia kudriavzevii [34]) | MIC (Candida tropicalis [35]) | MIC (Klebsiella pneumoniae [36]) | MIC (Trichosporon asahii [37]) | MIC (Candida tropicalis [40]) | MIC (Nakaseomyces glabratus [41]) | MIC (Escherichia coli [42])
0.03 µM: MIC99 [4] | MIC99 [18]
0.25 µM: MIC99 (Mycobacterium kansasii [13])
> 100 µM: IC50 (HaCaT)
0.06 µM: MIC99 (Mycobacterium kansasii [14]) | MIC99 (Mycobacterium kansasii [43])
4 µM: MIC99 (Mycobacterium avium [31])
250 µM: MIC (Staphylococcus aureus [23]) | MIC (Staphylococcus aureus [39])

O=[N+]([O-])c1cc(-c2nnn(Cc3ccc(Cl)cc3)n2)cc([N+](=O)[O-])c1
15.6 µM: MIC [44] | MIC [45]
170 µM: IC50 (CHO-K1)
1 µM: MIC99 (Mycobacterium kansasii [8]) | MIC99 (Mycobacterium kansasii [43])
0.5 µM: MIC99 (Mycobacterium kansasii [14])
2 µM: MIC99 (Mycobacterium kansasii [13]) | MIC99 (Mycobacterium kansasii [27])
250 µM: MIC (Candida tropicalis [35]) | MIC (Candida tropicalis [40])
500 µM: MIC (Trichosporon asahii [21]) | MIC (Trichosporon asahii [37])
0.25 µM: MIC99 [4] | MIC99 (Mycobacterium kansasii [16]) | MIC99 [18]
31.2 µM: MIC (Staphylococcus aureus [2]) | MIC (Staphylococcus aureus [7])
8 µM: MIC99 (Mycobacterium avium [9]) | MIC99 (Mycobacterium avium [31])
> 500 µM: MIC (Lichtheimia corymbifera [1]) | MIC (Pichia kudriavzevii [3]) | MIC [5] | MIC (Enterococcus sp. [10]) | MIC [11] | MIC (Klebsiella pneumoniae [12]) | MIC (Nakaseomyces glabratus [15]) | MIC (Klebsiella pneumoniae [17]) | MIC (Pseudomonas aeruginosa [19]) | MIC (Escherichia coli [20]) | MIC (Pseudomonas aeruginosa [22]) | MIC (Staphylococcus aureus [23]) | MIC (Enterococcus sp. [25]) | MIC (Aspergillus fumigatus [26]) | MIC (Lichtheimia corymbifera [28]) | MIC (Aspergillus fumigatus [29]) | MIC (Candida albicans [30]) | MIC (Klebsiella pneumoniae [32]) | MIC (Candida albicans [33]) | MIC (Pichia kudriavzevii [34]) | MIC (Klebsiella pneumoniae [36]) | MIC (Staphylococcus aureus [39]) | MIC (Nakaseomyces glabratus [41]) | MIC (Escherichia coli [42])
